System: HeLa
Assay: Cytotoxicity against human HeLa cells
Type: functional, cell-based

C=C1CCC[C@H]2[C@]3(C)OC4=C(C[C@]3(C)CC[C@]12C)C(=O)C(OC)=CC4=O [NEODACTYLOQUINONE] gave an IC50 of 86 µM.

— ChEMBL document CHEMBL1158885, “A new sesquiterpenoid quinone and other related compounds from the Okinawan marine sponge Dactylospongia elegans” (J Nat Prod, 2003)
